The record followed here is patent publication US8664225B2, “1-[2-(2,4-dimethylphenylsulfanyl)-phenyl] piperazine as a compound with combined serotonin reuptake, 5-HT3 and 5-HT1A activity for the treatment of pain or residual symptoms in depression relating to sleep and cognition” (H. Lundbeck A/S, priority 2007, dated 2014).

Where two headings read alike, the source gives them in different places.

Series [1] can be described thus: physchem. The settings on record: water.
The nature of series [2]: Solubility in water.
The nature of series [3]: Hygroscopicity (water absorption at relative humidity). The series is classed as physicochemical. An excerpt: Some compounds are hygroscopic, i.e. the absorb water when exposed to humidity. Hygroscopicity is generally regarded as an undesired property for compounds that are to be presented in a pharmaceutical formulation, in particular in a dry formulation, such as tablets. In one embodiment, the invention provides the use of crystals with low hygroscopicity. For oral dosage forms using crystalline active ingredients it is also beneficial if said crystals are well-defined. In the present context, the term “well-defined” in particular means that the stoichiometry is well-defined, i.e. that the ratio between the ions forming the salt is the ratio between small integers, such as 1:1, 1:2, 2:1, 1:1:1, etc. In one embodiment, the compound I forms well-defined crystals.

The test system of series [4] is rat. The series is described as follows: Chronic constriction nerve injury model. In kind it is in vivo. The note with it: 7.9 mg/kg s.c., 60 minutes, FIG. 26. How it is done:
This model of neuropathic pain involves the application of four loose ligations around one sciatic nerve of the rat over a period of time to develop both hyperalgesia and allodynia. The effect of test compounds in this test is measured as the time to withdraw the paw upon a thermal stimuli.

The test system of series [5] is extra-cellular levels of ACh. In words: Extracellular acetylcholine levels in brain of freely moving rats (microdialysis). The series is classed as in vivo, rat. The settings on record: 2.5-10 mg/kg s.c. How it is done: The animals were administered 1-[2-(2,4-dimethylphenylsulfanyl)phenyl]piparazine, HBr salt.
Male Sprague-Dawley rats, initially weighing 275-300 g, were used. The animals were housed under a 12-hr light/dark cycle under controlled conditions for regular in-door temperature (21±2° C.) and humidity (55±5%) with food and tap water available ad libitum.
Rats were anaesthetised with hypnorm/dormicum (2 ml/kg) and intracerebral guide cannulas (CMA/12) were stereotaxically implanted into the brain, aiming at positioning the dialysis probe tip in the ventral hippocampus (co-ordinates: 5.6 mm posterior to bregma, lateral −5.0 mm, 7.0 mm ventral to dura) or in the prefrontal cortex (co-ordinates: 3.2 mm anterior to bregma; lateral, 0.8 mm; 4.0 mm ventral to dura). […] The body temperature of the animals was monitored by rectal probe and maintained at 37° C. […]
The compound dissolved in 10% HPbetaCD and injected subcutaneously (2.5-10 mg/kg). Doses are expressed as mg salt/kg body weight. […]
Concentration of acetylcholine (ACh) in the dialysates was analysed by means of HPLC with electrochemical detection using a mobile phase consisting of 100 mM disodium hydrogenphosphate, 2.0 mM octane sulfonic acid, 0.5 mM tetramethyl-ammonium chloride and 0.005% MB (ESA), pH 8.0. […] The latter was detected electrochemical by using a platinum electrode (Analytical cell: ESA, model 5040). […]

Series [6] relates to Sprague-Dawley rats. In words: Contextual fear conditioning in rats. The series is classed as in vivo, rat. The settings on record: 1, 5 and 10 mg/kg s.c. 1 h prior to acquisition, any dose tested. An excerpt: The compound administered in the present experiment was 1-[2-(2,4-dimethylphenylsulfanyl)phenyl]piperazine HBr salt.
We have studied the effect of the compound on acquisition, consolidation and recall of contextual fear conditioning in rats. In the fear conditioning paradigm animals learn to associate a neutral environment (context, the training chamber, CS) with an aversive experience (an electrical foot-shock, US). During re-exposure to the training chamber, animals express a freezing behaviour, which is taken as a direct measure of the fear-related memory [Pavlov J. Biol. Sci., 15, 177-182, 1980]. […] Neurosci., 106, 274-285, 1992].
Adult male Sprague-Dawley rats (weighing 250-300 g at time of training) from Charles River Laboratories, housed two per cage under a 12 h light/dark cycle, were used. Food and water were available ad libitum. […]
During the acquisition animals were allowed to freely explore the novel environment for a 1 min habituation period, which co-terminated with one inescapable foot-shock (unconditioned stimulus, US) through the electrifiable grid floor. […] Freezing behaviour was scored during the first 58 s (pre-shock acquisition; experimenter blinded to groups) to determine baseline-freezing responses to the context. […] Freezing behaviour was scored during the whole test period with the experimenter blinded to groups and presented as percent of total test period.

In the case of `CS(=O)(=O)O.Cc1ccc(Sc2ccccc2N2CCNCC2)c(C)c1` [mesylate, 1-[2-(2,4-Dimethylphenylsulfanyl)-phenyl]piperazine mesylate], the solubility in series [1] was above 45000 µg/mL.

In turn, `Cc1ccc(Sc2ccccc2N2CCNCC2)c(C)c1.O=C(O)/C=C\C(=O)O` [maleate, 1-[2-(2,4-Dimethylphenylsulfanyl)-phenyl]piperazine Maleate] showed a solubility in series [1] of around 1000 µg/mL.

As for `Cc1ccc(Sc2ccccc2N2CCNCC2)c(C)c1.Cl` [hydrochloride, 1-[2-(2,4-Dimethylphenylsulfanyl)-phenyl]piperazine hydrochloride], the solubility in series [1] amounted to 3000 µg/mL.

With `Cc1ccc(Sc2ccccc2N2CCNCC2)c(C)c1.Cl` [hydrochloride monohydrate, 1-[2-(2,4-Dimethylphenylsulfanyl)-phenyl]piperazine HCl], the solubility in water result in series [2] (HCl) is listed as “about 2 mg/ml”. Moreover, the “hygroscopicity (in words)” value in series [3] is on record as “does not absorb further amount of water”.

In turn, `Cc1ccc(Sc2ccccc2N2CCNCC2)c(C)c1.O=C(O)C(O)C(O)C(=O)O` [L-(+)-tartrate, 1-[2-(2,4-Dimethylphenylsulfanyl)-phenyl]piperazine (+)-tartaric acid] yielded a solubility in series [1] of around 400 µg/mL.

Consider `Cc1ccc(Sc2ccccc2N2CCNCC2)c(C)c1.O=S(=O)(O)O` [sulphate, 1-[2-(2,4-Dimethylphenylsulfanyl)-phenyl]piperazine sulphate], for which the solubility in series [1] was around 100 µg/mL.

Take `Cc1ccc(Sc2ccccc2N2CCNCC2)c(C)c1.O=P(O)(O)O` [phosphate, 1-[2-(2,4-Dimethylphenylsulfanyl)-phenyl]piperazine phosphate]: the solubility in series [1] is around 1000 µg/mL.

For the compound `Br.Cc1ccc(Sc2ccccc2N2CCNCC2)c(C)c1` [compound I (HBr salt), 1-[2-(2,4-dimethylphenylsulfanyl)phenyl]piperazine HBr salt], the “withdrawal latency following a thermal stimuli” value in series [4] was “significant and dose-dependant withdrawal latency”. Further, in series [5] (FIG. 19a), the “extra-cellular levels of ACh in prefrontal cortex” value is on record as “significantly increased”. Moreover, in series [5] (FIG. 19b), the “extra-cellular levels of ACh in ventral hippocampus” value is on record as “significantly increased”. For the same compound, the “baseline freezing behaviour before the foot shock” value in series [6] is “does not affect”.

As to `Cc1ccc(Sc2ccccc2N2CCNCC2)c(C)c1` [crystalline base, 1-[2-(2,4-Dimethylphenylsulfanyl)-phenyl]piperazine], the “hygroscopicity (in words)” value in series [3] is “not hygroscopic”.

As to `Br.Cc1ccc(Sc2ccccc2N2CCNCC2)c(C)c1` [hemi hydrate of the hydrobromide, 1-[2-(2,4-Dimethylphenylsulfanyl)-phenyl]piperazine hydrobromide], the water content entry in series [3] (room temperature and 95% RH) is reported as “about 3.7%”.

Turning to `Br.Cc1ccc(Sc2ccccc2N2CCNCC2)c(C)c1` [gamma form of the hydrobromide, 1-[2-(2,4-Dimethylphenylsulfanyl)-phenyl]piperazine hydrobromide], in series [3] (30% RH at room temperature), the “water absorbed at 30% RH” value is “about 2%”.

As for `Cc1ccc(Sc2ccccc2N2CCNCC2)c(C)c1.O=[N+]([O-])O` [nitrate, 1-[2-(2,4-Dimethylphenylsulfanyl)-phenyl]piperazine nitrate], in series [1], the solubility is around 800 µg/mL.

As for `Cc1ccc(Sc2ccccc2N2CCNCC2)c(C)c1` [fumarate, 1-[2-(2,4-Dimethylphenylsulfanyl)-phenyl]piperazine], the solubility in water in series [2] was found to be 400 µg/mL.

Compound `Br.Cc1ccc(Sc2ccccc2N2CCNCC2)c(C)c1` [alpha form of the hydrobromide, 1-[2-(2,4-Dimethylphenylsulfanyl)-phenyl]piperazine hydrobromide] gave a solubility in series [1] of 2000 µg/mL.
